What all share (type): protein-complex assay
The target in experiment [1] is T1, cAMP-dependent protein kinase A (Bos taurus, UniProt P00515+P00517+P05131+P31322). The experiment can be described thus: Inhibition of PKA at 100 uM ATP.
In experiment [2] the target is T1, cAMP-dependent protein kinase A. The experiment can be described thus: Inhibition of PKA at 2 mM ATP.
Experiment [3] has the same target. The experiment is described as follows: Inhibitory constant for Protein Kinase A.

Usually IC50 stands for the point on the concentration scale where inhibition reaches its midpoint. The low end stands for inhibition by little substance, the high end for a need for much substance. A word on the Ki: it is a dissociation constant, usually derived from enzyme kinetics or from competition with a known ligand. Lower therefore signals higher affinity. Regarding `N=C(N)NCCOCCOCCn1cnc2c(N)ncnc21`, the IC50 in experiment [1] was 1700 µM; in experiment [2], 6200 µM. Moreover, the Ki in experiment [3] was determined as 150 µM.

For `N=C(N)NCCn1cnc2c(N)ncnc21`, the IC50 in experiment [1] stood at 420 µM; in experiment [2], 790 µM. The molecule further gave a Ki in experiment [3] of 38 µM.

As to `N=C(N)NCCOCCn1cnc2c(N)ncnc21`, the IC50 came to 320 µM in experiment [1] and 760 µM in experiment [2]. In experiment [3], the affinity, expressed as Ki, was 29 µM.

As for `Nc1ncnc2c1ncn2[C@@H]1O[C@H](CO)[C@@H](O)[C@H]1O` [ADENOSINE], the figures for the IC50 in experiment [1] and in experiment [2] were 160 µM and 1100 µM, respectively. Also, the Ki in experiment [3] turned out to be 15 µM.
